# Several values for one entry are separate records, joined by “and”; a condition that tells them apart may be missing. Equal values may be shown once.
# Key:
# [1] = system: NIH3T3 cells; assay: NIH3T3 cell growth inhibition (FIG. 3); assay type: cell-based, mouse; settings: NIH3T3 (murine) cells
# Procedure: (§1) NIH3T3 (mouse embryo) cells were obtained from the American Type Culture Collection and were grown in Dulbecco's modified Eagle's medium supplemented with 10% calf serum. M600B immortalized human mammary epithelial cells (Stampfer, M.R., 1985, J. Tissue Culture Methods 9:107-115) were, obtained from Dr. Martha Stampfer and were grown in supplemented HCDB 170 medium (Hammond, et al. (1984) Proc. Natl. Acad. Sci U.S.A. 81:5435-5439), as described previously (Stampfer, et al. (1985) Proc. Natl. Acad. Sci U.S.A. 82:2394-2398; Eldridge, et al. (1989) Cancer Res. 49:4326-4331).
# (§2) All cells were maintained in 100-mm dishes at 37° C. in a humidified 5% CO2 atmosphere. Viable cells were distinguished from nonviable cells by counting azure II/methylene blue-stained colonies 10 days after the cells were plated at a density of 100 cells per dish. Trypan blue exclusion was measured by incubating cells for 1 min with one drop of trypan blue per 10 ml of cells. Viable (colorless) and nonviable (blue) cells were then counted on a hemocytometer.
# (§3) We examined the effect of several of the terpenes on certain types of cell growth. […] Additionally, growth of HT29 (human colon adenocarcinoma) cells was inhibited by 80% by 1 mM perillyl alcohol.
# [2] = system: HT29 cells; assay: Inhibition of HT29 colon adenocarcinoma cell growth/proliferation; assay type: cell-based, human; settings: for Rank order, inhibition of HT-29 tumor cell proliferation: 1 = greatest inhibition, 5 = least inhibition
# Procedure: as §3
# [3] = system: 21-26 kDa proteins; assay: Protein isoprenylation inhibition in NIH3T3 cells (SDS-PAGE fluorography); assay type: cell-based, mouse; settings: for isoprenylation of the 21-26-kDa bands, % of the control: NIH3T3, gel slicing and scintillation counting
# Procedure: "Isoprenylation" is the addition of a multiple of the 5 carbon isoprene unit to a protein. Our experiments in isoprenylation are reported at Crowell, et al. 1991, J. Biol. Chem. 266:17679-17685. To test whether a specific monoterpene affects isoprenylation of proteins in cells, […] were incubated with a radioactive isoprene precursor and 0-5 mM of the test monoterpene and then subjected to SDS-PAGE. Because they carried a radioactive label, isoprenylated proteins were visualized by fluorography. As a control, cells were incubated without the monoterpene.
# Cells were harvested after trypsin treatment, washed twice with phosphate-buffered saline, suspended in electrophoresis sample buffer (Laemmli, U.K., 1970, Nature 227:680-685), and either analyzed immediately or stored at -20° C. Whole cell extracts were analyzed by SDS-PAGE on 16-cm×18-cm×0.75-mm gels by the method of Laemmli (supra). The acrylamide concentrations were 5% for the stacking gel and 12% for the separating gel. Gels were stained with Coomassie Brilliant Blue, equilibrated for 20 min in Amplify (Amersham Corp.) fluorographic reagent, dried under vacuum at 65° C., and exposed to preflashed Kodak X-Omat AR film as described by Laskey and Mills (1975, Eur. J. Biochem, 56:335-341). Some fluorograms were analyzed further by densitometry. Where indicated, gels were sliced, dissolved at 50° C. for 3 hours in 0.5 ml of water+0.5 ml of Solvable (Amersham), and then analyzed by scintillation spectrometry in 10 ml of Atom light (Amersham) mixture. Protein content was measured by the method of Lowry, et al. (1951, J. Biol. Chem. 193:265-275).
# FIG. 1 depicts the structures of certain monoterpenes.
# The degree of isoprenylation was evaluated by the amount of labeled protein present in the 21-26 kDa range, as evidenced by fluorography.
# [4] = system: M600B cells; assay: M600B cell growth inhibition (FIG. 4); assay type: cell-based; settings: M600B (human) cells
# Procedure: as §1, §2, §3
# [5] = system: 21-26 kDa proteins; assay: Protein isoprenylation inhibition in M600B human mammary epithelial cells
# Procedure: To test whether a specific monoterpene affects isoprenylation of proteins in cells, cell extracts were incubated with a radioactive isoprene precursor and 0-5 mM of the test monoterpene and then subjected to SDS-PAGE. Because they carried a radioactive label, isoprenylated proteins were visualized by fluorography. As a control, cells were incubated without the monoterpene.
# For both isoprenylation and cell growth assays, the monoterpenes were mixed with prewarmed (37° C.) medium containing 10% calf serum, and then the monoterpene-containing medium was added to cells. The relative effects of various monoterpenes on protein isoprenylation were compared by comparison of the relative intensity of bands on fluorograms from [^14 C]-mevalonate-labelled cells treated with each monoterpene.
# Samples from each cell line were then analyzed on the same gel.
# [6] = system: rat mammary carcinoma; assay: Comparison of dietary perillyl alcohol and perillic acid methyl ester as inducers of rat mammary carcinoma regression; assay type: in vivo, Wistar-Furth rat; settings: 0.5% PAME diet
# Procedure: (§4) Inbred female Wistar-Furth rats were given 50 mg/kg DMBA at 50-55 days of age. Upon development of a mammary tumor with the largest diameter≥10 mm, the rat was assigned to 0.5% perillic acid methyl ester diet and fed ad libitum. The 0.5% perillic acid methyl ester diet (weight compound/weight ground Teklad rat/mouse 4% meal/chow) was prepared fresh every 7-10 days. Fresh diet was given to rats daily. All rats were weighed and palpated weekly. The study was terminated at 6 weeks after initial diet administration. The following tumor regression data was acquired:
# We compared the effects of PAME and POH in terms of their ability to regress rat mammary carcinomas. Table 8 records our comparison. In summary, a 0.5% PAME diet was effective, while a 0.5% POH diet was only 10% effective. Diets of 2% POH were roughly 64-70% effective. While 2% POH is tolerated by a mammal, on a practical level PAME is preferred because a lower dose is sufficient.
# [7] = system: DMBA rat mammary tumor; assay: Dietary perillic acid methyl ester-induced rat mammary tumor regression; assay type: in vivo, Wistar-Furth rat; settings: 0.5% perillic acid methyl ester diet, individual rat tumors
# Procedure: as §4, with “administration.” for “administration. The following tumor regression data was acquired:”
# [8] = system: DMBA-induced rat mammary carcinomas; assay: Regression of DMBA-induced mammary carcinomas, pair-feeding study; assay type: in vivo, Wistar-Furth rat
# Procedure: We used Wistar-Furth female rats for in vivo studies. Wistar-Furth female rats were obtained from Harlan Sprague-Dawley, Inc., (Madison, Wis.). All rats, arriving at 43-48 days of age, were housed at four rats per cage in wire-bottom metal cages and all were maintained with a light/dark cycle of 12 hours. Rats were provided Teklad Lab blox chow and acidified water ad libitum.
# After one week of acclimation, the carcinogen DMBA was administered to the rats, which were 50-55 days old at this point. The DMBA was dissolved in a stock solution of 20 mg DMBA/ml sesame oil, heated and allowed to cool to room temperature before administration. DMBA (Eastman Kodak, Rochester, N.Y.) was given as a single gastric intubation of 50 mg DMBA/kg rat body weight.
# In the pair-feeding study, a group of 70 mammals was treated with DMBA. Beginning four weeks post carcinogen administration, mammals were weighed and palpated weekly. Upon palpation of the first mammary carcinoma (diameter≥3 mm), mammals were randomly assigned to control or 2.5% (w/w) perillyl alcohol diet and pair-fed.
# Perillyl alcohol (>96% pure by GC analysis, Aldrich, Milwaukee, Wis.) and Teklad 4% mouse/rat diet meal were thoroughly mixed and stored at -20° C. Fresh diets were made every 7-10 days. All mammals were provided fresh diet daily to minimize evaporation of the monoterpenes. For pair-feeding, the quantity of diet consumed by the monoterpene-fed mammals was measured every 24 hours and the assigned partner was pair-fed accordingly.
# In the pair-feeding study, all palpable mammary carcinomas were classified as either "primary" tumors (i.e, the first tumor(s) palpated with a minimum diameter of 3 mm) or "secondary" tumors (i.e. a palpable tumor arising after initial diet assignment). At diet assignment, some mammals had more than one primary tumor. All carcinogen-exposed mammals not bearing a first palpable tumor by week 15 post-carcinogen were removed from the experiment. Complete regression of a tumor was defined as non-palpability for a minimum of three consecutive weeks. All mammals in the pair-feeding study were followed for a minimum of 10 weeks post-diet assignment for tumor growth or regression at primary tumor sites and all other mammary glands. The rats were necropsied if moribund. Complete necropsies were performed on all rats at the termination of the study. Greater than 95% of tumors remaining at the autopsy date were diagnosed as mammary carcinomas based on gross and histopathological criteria.
# [9] = in vivo; cited from earlier work
# [10] = rat, in vivo; cited from earlier work
# [11] = Plasma metabolite identification and quantitation in rats; assay type: in vivo, Wistar-Furth rat; settings: rat, in vivo
# Procedure: Control animals received oil alone. At the chosen time points, rats were anesthetized with ether and blood was collected into heparinized tubes (Heparin (Sigma, Grade II), at 20 mg/ml in 0.9% saline). Plasma was removed following centrifugation and stored at -20° C.
# For quantitation of chronic plasma metabolite levels of perillyl alcohol, female WF rats were housed individually and fed fresh diet daily. The afternoon before blood collection, all rats were given approximately 20 grams of the appropriate diet and allowed to eat ad. libitum for 18 hours. Food consumption data was determined the next morning and the rats were bled within 2 hours following food removal.
# Briefly, 5 μl of a 10 mM solution of perillaldehyde was added to 50 μl plasma as an internal standard for quantitation. The plasma was mixed with an equal volume of n-butanol:acetonitrile (1:1, v/v), after which another volume of saturated potassium phosphate was added. After vortexing, the samples were centrifuged and the organic layer removed from the top.
# Plasma extracts were analyzed using a Hewlett-Packard 5891 gas chromatograph equipped with a flame-ionization detector or a Hewlett-Packard 5890 chromatograph equipped with a 5971A mass-selective detector, both with 30 m Supelco SPB-5 columns. The temperature program was 90° C. for 4 minutes, increasing by 10° C./minute, followed by 15 minutes at 275° C. The split ratio was 1:10 and the linear velocity was 1.1 ml/minute. Standard curves were generated by adding 5 μl rat plasma. Standards were then extracted and analyzed by capillary gas chromatography. The ratio of the terpene peak area/perillaldehyde peak area versus the concentration of terpene in the sample was plotted.
# [12] = Chemistry panel and toxicity monitoring in human subjects; settings: 100 mg/kg d-limonene
# Procedure: The custard consisted of dry unflavored custard mix, cold water, cold whole milk, and orange oil. The components were blended at room temperature and then refrigerated for at least 30 minutes prior to ingestion by the subjects. Subjects ingested the orange oil-containing mixture over 2-10 minutes. […] One subject had additional blood draws for metabolite analysis at 1, 2, and 8 h post-ingestion. The chemistry panel consisted of: BUN, creatinine, calcium, magnesium, phosphorous, uric acid, total cholesterol, total protein, albumin, total bilirubin, y-glutamyl transpeptidase, alkaline phosphatase, aspartate aminotransferase, and lactate dehydrogenase. Subjects were monitored for toxicity for one week.
# [13] = in vivo
# Procedure: Subjects: The subjects were five females and two males, median age of 32 years (range 23-55) and without illness or laboratory abnormalities.
# The custard consisted of dry unflavored custard mix, cold water, cold whole milk, and orange oil. The components were blended at room temperature and then refrigerated for at least 30 minutes prior to ingestion by the subjects. Subjects ingested the orange oil-containing mixture over 2-10 minutes. […] The chemistry panel consisted of: BUN, creatinine, calcium, magnesium, phosphorous, uric acid, total cholesterol, total protein, albumin, total bilirubin, y-glutamyl transpeptidase, alkaline phosphatase, aspartate aminotransferase, and lactate dehydrogenase. Subjects were monitored for toxicity for one week.
# [14] = 6 weeks, second comparison, listed as PAME
# [15] = 10% limonene diet or 2.5% POH diet
smiles,measurement,setting,value
C=C(C)[C@@H]1CC=C(C(=O)O)CC1 [perillic acid],inhibition of cell growth,[1],significantly inhibited cell growth in a dose-dependent manner
same,"Rank order, inhibition of HT-29 tumor cell proliferation",[2],4
same,inhibition of isoprenylation in all cases examined,[3]; all cell types examined,inhibition of isoprenylation
same,inhibition of cell growth,[4],significantly inhibited cell growth in a dose-dependent manner
same,isoprenylation of 21-26 kDa proteins,[5]; 5 mM,inhibited significantly
C=C(C)C1CC=C(C(=O)OC)CC1 (stereo not drawn) [perillic acid methyl ester],effectiveness of diet,[6],effective
same,no regression (tumors),"[6]; 6 weeks, second comparison",10 of 19
same,no response,"[6]; 6 weeks, second comparison",1
same,partial regression >1/2 original diameter (%),"[6]; 6 weeks, second comparison",47%
same,partial regression >1/2 original diameter (tumors),"[6]; 6 weeks, second comparison",9 of 19
same,small regression response,"[6]; 6 weeks, second comparison",4 of 19
same,some growth of tumor,"[6]; 6 weeks, second comparison",5 of 19
same,no regression (tumors),[6]; [14],10/19
same,no response,[6]; [14],1/19
same,partial regression >1/2 original diameter (tumors),[6]; [14],9/19
same,small regression response,[6]; [14],4/19
same,some growth of tumor,[6]; [14],5/19
same,potency in cell proliferation tests versus perillyl alcohol,[2],"more potent in cell proliferation, tests than perillyl alcohol"
same,"Rank order, inhibition of HT-29 tumor cell proliferation",[2],1
same,IC50,"[2]; Homo sapiens, HT-29, read-out: IC50 HT29 tumor cell proliferation",50 µM
same,time (of tumor size change),[7],6 wks and 5 wks and 4 wks and 3 wks and 2 wks
"C=C(C)C1CC=C(C=O)CC1 (stereo not drawn) [Perillylaldehyde, reference compound]","Rank order, inhibition of HT-29 tumor cell proliferation",[2],3
C=C(C)[C@H]1CC=C(C)CC1 [limonene],Primary carcinoma complete regression (tumors regressed / tumors),[8]; [15],19/28
same,Primary carcinoma regression (%),[8]; [15],68%
same,Secondary carcinoma regression (%),[8]; [15],63%
same,Secondary carcinoma regression (tumors regressed / tumors),[8]; [15],17/27
same,Secondary carcinomas/rat,[8]; [15],1.08
same,development of secondary carcinomas,[8]; after initial diet assignment,number of secondary carcinomas was higher in the limonene-fed mammals
same,Time to Regress (wks),"[8]; primary carcinoma, footnote: Kaplan-Meier estimate of time when 25% regressed",3.25 wks
same,"Rank order, inhibition of HT-29 tumor cell proliferation",[2],5
same,side-effects,[9],not without some side-effects
same,time of highest concentrations of limonene-derived material,[10],2 to 12 h
same,mM DHPAME,[11],trace
same,metabolism at 4 hours,[11],equal amounts of perillic and dihydroperillic acid
same,parent in plasma at 24 hours,[11],no limonene was detectable in the plasma
same,time parent found in plasma,[11],up to 4 hours
same,Total,[11]; 30240 min,0.19 mM
same,mM DHPA,[11]; 30240 min,0.06 ± 0.01 mM
same,mM DHPAME,[11]; 30240 min,0.01 ± 0.00 mM
same,mM LIM/POH,[11]; 30240 min,0 mM
same,mM PA,[11]; 30240 min,0.10 ± 0.02 mM
same,mM PAME,[11]; 30240 min,0.02 ± 0.01 mM
same,Total,[11]; 50400 min,0.28 mM
same,mM DHPA,[11]; 50400 min,0.09 ± 0.02 mM
same,mM DHPAME,[11]; 50400 min,0.01 ± 0.00 mM
same,mM LIM/POH,[11]; 50400 min,0 mM
same,mM PA,[11]; 50400 min,0.14 ± 0.03 mM
same,mM PAME,[11]; 50400 min,0.04 ± 0.01 mM
same,Total,[11]; 100800 min,0.27 mM
same,mM DHPA,[11]; 100800 min,0.12 ± 0.01 mM
same,mM LIM/POH,[11]; 100800 min,0 mM
same,mM PA,[11]; 100800 min,0.13 ± 0.01 mM
same,mM PAME,[11]; 100800 min,0.02 ± 0.00 mM
same,concentration,"[11]; po, 1000 mg/kg, 4 h",90 ± 20 µM
same,gradeable toxicity,[12],No gradeable toxicity was encountered
same,"isoprenylation of the 21-26-kDa bands, % of the control",[3]; 0.5 mM limonene,~ 50 % of the control
same,"intensity of the 66-, 46-, and 17-kDa bands",[3]; 0.5 mM or 5 mM limonene,not different from that of the control
same,"isoprenylation of the 21-26-kDa bands, % of the control",[3]; 5 mM limonene,~ 25 % of the control
same,time of highest metabolite concentrations,[13]; human,4 h
same,identity of abundant human metabolite H2,[13],"limonene-1,2-diol"
same,metabolite concentrations at 24 h (8 h in one subject),[13],lower than those at the 4 h time point
same,intensity of the 21-26 kDa bands,[5]; 5 mM limonene,marked decrease
same,concentration required for significant inhibition of protein isoprenylation,[5]; dose responsive,at least 1 mM

# From US5470877A, “Uses of perillic acid methyl ester” (Wisconsin Alumni Research Foundation, priority 1994, dated 1995)
